Here are results for one compound from patent US20260325485A1, “COMPOSITIONS AND METHODS FOR TREATING PANCREATITIS” (The United States Government as represented by the …, priority 2022, published 2026).

Series [1] has as its system cerulein pancreatitis (CER-AP). As to the kind of experiment: Drug treatment of cerulein pancreatitis (CER-AP) in WT mice. In kind it is in vivo, mouse. The following applies: WT mice treated with simvastatin or BemA. The protocol:
FIGS. 10A-10N show deranged cholesterol metabolism causes acinar cell damage, while its normalization ameliorates experimental pancreatitis. (A-D) Cholesterol content and trypsin activity were measured (per mg protein) in WT mouse acinar cells incubated for 1 hour without and with methyl-β-cyclodextrin (MCD; 10 mM) or cholesterol-loaded MCD (MCD-Chol; 200 μg/mL), in the presence or absence of 100 nM CCK. Values are expressed relative to those in cells without MCD/MCD-Chol. (E-J) WT mice received daily i.p. injections of the LXR agonist T0901317 (T09), simvastatin (Sim; 20 mg/kg each), or vehicle. On day 4, mice were subjected to CER-AP and pancreata collected for analyses (see also FIG. 20). Cholesterol content (E), trypsin activity (F), and pancreas histopathology (H&E staining; G) were measured. (H, I, L, and N) IB analysis of markers/mediators of autophagy (LC3, p62), ER stress (CHOP, GRP-78), and mitophagy (Parkin). Ub, ubiquitylated proteins. (J) Mitochondrial fragmentation was assessed by immunostaining for Tom20, as detailed in FIG. 7G. (K and L) Mouse acinar cells were treated for 16 hours with LDL (30 μg/mL) or the combination of LDL and 10 μM U18666A. (M and N) Mice received injections of U18666A as detailed in FIG. 9B. Pancreas histopathology (H&E staining; M) and levels of autophagy markers/mediators (N) were measured. Each symbol in A-F and I represents an individual mouse or cell preparation. Values are mean±SEM from 3 to 7 mice or cell preparations per condition. ^§ P<0.05, ^§§ P<0.01 vs. control cells (without MCD/MCD-Chol). ***P<0.001 vs. saline-treated mice. ^#P<0.05, ^##P<0.01, ^###P<0.001 vs. CER-AP alone (no inhibitors). Significance was determined by 2-tailed Student's t test (A-D) or 1-way ANOVA followed by Tukey's multiple comparison test (E, F, and I). Scale bars: 10 μm.
FIGS. 20A-20C show simvastatin improves cerulein pancreatitis. Mice received daily i.p. injections of simvastatin (Sim; 20 mg/kg) or vehicle (see FIG. 10), and on day 4 were subjected to cerulein pancreatitis (CER-AP). (A) Pancreas histopathology (H&E staining; scale: 10 μm). (B) IB analysis of markers/mediators of autophagy (LC3, p62), ER stress (CHOP), and the MLN64/STARD3 protein mediating cholesterol transfer from LE/Ly to mitochondria. Each IB lane represents an individual mouse; ERK1/2 is the loading control. […] Ub, ubiquitylated proteins. (C) Pancreatitis responses. Values are mean±SEM from 7-13 mice for each condition. ***p<0.001 vs saline control. ^###p<0.001 vs CER-AP alone (no simvastatin). Significance was determined by 1-way ANOVA followed by Tukey's multiple comparisons test.
(§1) FIGS. 25A-25C show reducing cholesterol overload greatly ameliorates experimental pancreatitis. CER-AP responses were measured in (A) AclyAac or (C) WT mice treated with simvastatin or bempedoic acid (BemA). (B) Acinar cells were transfected with ACLA (or mock) siRNA and subjected to ex-vivo CCK-AP. Each symbol represents an individual mouse or cell preparation. Values are mean±SE. **p<0.01, ***p<0.001 vs saline treated control mice (or mock transfection); #p<0.05, ##p<0.01, ###p<0.001 vs CER/CCK-AP in control mice (i.e. without inhibitors) or cells.
Cerulein-induced (CER-AP) and L-arginine induced (Arg-AP) acute pancreatitis models were performed in 12-week-old C57BL/6 mice that received 7 hourly i.p. injections of 50 μg/kg cerulein or 3 hourly i.p. injections of 3.3 g/kg Arg; controls received physiologic saline injections. Mice were euthanized for analyses 7 hours after the first cerulein or 24 hours after the first Arg injection. Choline deficient, ethionine-supplemented (CDE) pancreatitis was induced in young (~5-weeks old) female mice fed either CDE or control diet. Mice were euthanized 72 hours after the diet initiation. These models have been described in detail (1-7).
12-week-old WT mice were subjected for 4 consecutive days to daily i.p. injections of 20 mg/kg simvastatin (8,9) or 20 mg/kg T0901317 (10); or 10 mg/kg U18666A for 15 days (11). […]

Series [2] has as its system CER/CCK-AP. As to the kind of experiment: Effect of simvastatin and BemA in CER/CCK-AP (mouse and ex-vivo model). The protocol:
as §1
FIGS. 26A-26D preventing cholesterol overload ameliorates ex-vivo pancreatitis. Mouse pancreatic acinar cells were incubated (A, B) with simvastatin (4 μM, 3 h) or (C, D) cholesterol chelator, methyl-β-cyclodextrin (MCD; 10 mM, 1 h) and then subjected to CCK-AP for 1 (D) or 3 h (A, B). Cholesterol content (A, C) necrosis (B), and trypsin activity (D) were measured. Each symbol represents an individual cell preparation. Values are mean±SEM*p<0/05, **p<0.01 vs control; #p<0.05 ##p<0.01; vs CCK, no inhibitor.
Cholesterol metabolism is disrupted in pancreatitis as a result of lysosomal/autophagy dysfunction. Preventing acinar cell cholesterol overload with simvastatin alleviates AP in one experimental model (CER-AP). As discussed above, lysosomal/autophagy dysfunction is associated with both experimental and human pancreatitis.^6, 7, 9, 13, 17 However, until a recent publication^13 there was very little known on cholesterol metabolism in healthy pancreas, its changes in experimental and human pancreatitis, and role in disease severity. Further, effects of statins and other cholesterol-lowering drugs in pancreas, and the underlying mechanisms, have not been explored. […] This, in turn, stimulates a compensatory increase in cholesterol synthesis, further exacerbating cholesterol overload. It was further shown^13 that inhibition of cholesterol synthesis with simvastatin reduced acinar cell cholesterol overload and the severity of pancreatitis induced with supramaximal cerulein (CER), an ortholog of the hormone cholecystokinin-8 (CCK). The findings^13 reveal a previously unrecognized pathogenic role of cholesterol dysregulation in pancreatitis and indicate normalizing cholesterol metabolism as a novel therapeutic approach for disease treatment.
In summary, the published^13 and current data (FIGS. 23-26) reveal that disruption of acinar cell cholesterol metabolism is a common feature in models of experimental pancreatitis and also prominent in human disease. The key manifestation of cholesterol dyshomeostasis in pancreatitis is acinar cell cholesterol overload. […]

In series [3] the test system is muscles. Conditions: prodrug activated in the liver; cited from earlier work.

In the case of `CC(C)(CCCCCC(O)CCCCCC(C)(C)C(=O)O)C(=O)O` [BemA, Bempedoic acid], in series [1], the “cholesterol overload in CER-AP (FIG. 25C)” value is “decreased”, the “inflammation in CER-AP (FIG. 25C)” value is “ameliorated”, the “necrosis in CER-AP (FIG. 25C)” value is reported as “ameliorated” and the “trypsin activity in CER-AP (FIG. 25C)” value is reported as “ameliorated”. Also, in series [2], the “cholesterol overload, CER/CCK-AP” value is recorded as “prevented” and the “disease severity, CER/CCK-AP” value is “reduced”. The myotoxicity result in series [3] was “minimal”.
